Like-named read-outs stand apart in the source and are kept apart here. Values belong to the molecule of their own block, whether it stands above or below them.
Assays:
[1] = test system: plasma enzymes; test: half-life of prodrug ester in plasma (hydrolysis by plasma enzymes); details: plasma
[2] = stability against chemical hydrolysis in pH solutions; assay type: physicochemical
[3] = half-life of prodrug ester in plasma (hydrolysis by plasma enzymes); details: in plasma at physiologic pH
[4] = cited from earlier work

- half-life [1]: 0.333 h
- half-life ([2]; pH 1.0 solution, pH 1, 1.0 pH solution, read-out: half life in a 1.0 pH solution (converted)): 7.6 h
- half-life ([2]; pH 7.4 solution, pH 7.4, 7.4 pH solution, read-out: half life in a 7.4 pH solution (converted)): 66 h
SMILES: Cc1cccc(Nc2ccccc2C(=O)OCCOC(=O)N2CCOCC2)c1C [2-[(2,3-Dimethylphenyl)amino]-benzoic acid morpholinocarbonyloxyethyl ester]

SMILES: O=C(Cc1ccccc1Nc1c(Cl)cccc1Cl)OCCOC(=O)N1CCOCC1 [2-[(2,6-Dichlorophenyl])amino]benzene-acetic acid morpholinocarbonyloxyethyl ester]
- half-life in plasma [3]: 0.35 h
- half life in a 1.0 pH solution ([2]; 1.0 pH solution): 8 hours
- half life in a 7.4 pH solution ([2]; 7.4 pH solution): 47 hours

SMILES: O=C(Oc1ccccc1C(=O)O)c1ccccc1O [Salsalate, salsalate]
- solubility at normal acidic gastric pH [4]: insoluble

Source: patent US20050004118A1, “Prodrugs of non-steroidal anti-inflammatory and carboxylic acid containing compounds” (priority 2000, published 2005)
